Assay results from the supplement of paper PMC10307832.

Tests used:
Assay in all cases: relative viability (nuclei count vs DMSO), 5 days (fraction); higher = more cells survive
[1] = test system: 201T
Procedure, shortened: (§1)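 Relative viability is defined as nuclei in treated wells over nuclei in vehicle wells. Duplicate plates were run and medians reported. Lung cancer cell lines in 1536-well plates were dosed by pin tool one day after seeding, with one drug or with a fixed anchor-drug dose plus five library-drug doses (not always all listed) in √10 steps, and nuclei were counted after 5 days.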

[2] = test system: BEN
Procedure, shortened: as §1

[3] = test system: CAL-12T
Procedure, shortened: as §1

[4] = test system: HCC-78
Procedure, shortened: as §1

[5] = test system: HOP-62
Procedure, shortened: as §1

[6] = test system: LCLC-97TM1
Procedure, shortened: as §1

[7] = test system: LOU-NH91
Procedure, shortened: as §1

[8] = test system: NCI-H1355
Procedure, shortened: as §1

[9] = test system: NCI-H1395
Procedure, shortened: as §1

[10] = test system: NCI-H1651
Procedure, shortened: as §1

[11] = test system: NCI-H1793
Procedure, shortened: as §1

[12] = test system: NCI-H1915
Procedure, shortened: as §1

[13] = test system: NCI-H1944
Procedure, shortened: as §1

[14] = test system: NCI-H2126
Procedure, shortened: as §1

[15] = test system: NCI-H2347
Procedure, shortened: as §1

[16] = test system: NCI-H3122
Procedure, shortened: as §1

[17] = test system: NCI-H322M
Procedure, shortened: as §1

[18] = test system: NCI-H441
Procedure, shortened: as §1

[19] = test system: NCI-H650
Procedure, shortened: as §1

[20] = test system: NCI-H838
Procedure, shortened: as §1

[21] = test system: SK-LU-1
Procedure, shortened: as §1

[22] = test system: SW 1573
Procedure, shortened: as §1

Cc1cn(-c2cc(NC(=O)c3ccc(C)c(Nc4nccc(-c5cccnc5)n4)c3)cc(C(F)(F)F)c2)cn1 [Nilotinib] + CC(=O)Nc1cccc(-n2c(=O)n(C3CC3)c(=O)c3c(Nc4ccc(I)cc4F)n(C)c(=O)c(C)c32)c1 [Trametinib] (partner 0.02 µM)
relative viability ([1]; first compound 0.001 µM): 0.709 | relative viability ([1]; first compound 0.003162 µM): 0.749 | relative viability ([1]; first compound 0.01 µM): 0.739 | relative viability ([1]; first compound 0.03162 µM): 0.717 | relative viability ([1]; first compound 0.1 µM): 0.728 | relative viability ([2]; first compound 0.001 µM): 0.98 | relative viability ([2]; first compound 0.003162 µM): 0.931 | relative viability ([2]; first compound 0.01 µM): 1.01 | relative viability ([2]; first compound 0.03162 µM): 0.954 | relative viability ([2]; first compound 0.1 µM): 1.15 | relative viability ([3]; first compound 0.001 µM): 0.289 | relative viability ([3]; first compound 0.003162 µM): 0.34 | relative viability ([3]; first compound 0.01 µM): 0.261 | relative viability ([3]; first compound 0.03162 µM): 0.283 | relative viability ([3]; first compound 0.1 µM): 0.249 | relative viability ([4]; first compound 0.001 µM): 0.754 | relative viability ([4]; first compound 0.003162 µM): 0.597 | relative viability ([4]; first compound 0.01 µM): 0.956 | relative viability ([4]; first compound 0.03162 µM): 0.649 | relative viability ([4]; first compound 0.1 µM): 0.863 | relative viability ([5]; first compound 0.001 µM): 0.387 | relative viability ([5]; first compound 0.003162 µM): 0.364 | relative viability ([5]; first compound 0.1 µM): 0.277 | relative viability ([6]; first compound 0.001 µM): 0.164 | relative viability ([6]; first compound 0.003162 µM): 0.18 | relative viability ([6]; first compound 0.01 µM): 0.152 | relative viability ([6]; first compound 0.03162 µM): 0.114 | relative viability ([6]; first compound 0.1 µM): 0.227 | relative viability ([7]; first compound 0.001 µM): 0.799 | relative viability ([7]; first compound 0.003162 µM): 0.818 | relative viability ([7]; first compound 0.01 µM): 0.846 | relative viability ([7]; first compound 0.03162 µM): 0.77 | relative viability ([7]; first compound 0.1 µM): 0.765 | relative viability ([8]; first compound 0.001 µM): 0.378 | relative viability ([8]; first compound 0.003162 µM): 0.469 | relative viability ([8]; first compound 0.01 µM): 0.44 | relative viability ([8]; first compound 0.03162 µM): 0.356 | relative viability ([8]; first compound 0.1 µM): 0.307 | relative viability ([9]; first compound 0.001 µM): 0.988 | relative viability ([9]; first compound 0.01 µM): 1.19 | relative viability ([9]; first compound 0.03162 µM): 0.96 | relative viability ([9]; first compound 0.1 µM): 0.9 | relative viability ([10]; first compound 0.001 µM): 0.828 | relative viability ([10]; first compound 0.003162 µM): 0.916 | relative viability ([10]; first compound 0.01 µM): 0.951 | relative viability ([10]; first compound 0.03162 µM): 0.761 | relative viability ([10]; first compound 0.1 µM): 0.851 | relative viability ([11]; first compound 0.001 µM): 0.403 | relative viability ([11]; first compound 0.003162 µM): 0.396 | relative viability ([11]; first compound 0.01 µM): 0.328 | relative viability ([11]; first compound 0.03162 µM): 0.239 | relative viability ([11]; first compound 0.1 µM): 0.251 | relative viability ([12]; first compound 0.001 µM): 0.237 | relative viability ([12]; first compound 0.003162 µM): 0.283 | relative viability ([12]; first compound 0.01 µM): 0.224 | relative viability ([12]; first compound 0.03162 µM): 0.151 | relative viability ([12]; first compound 0.1 µM): 0.164 | relative viability ([13]; first compound 0.001 µM): 0.378 | relative viability ([13]; first compound 0.003162 µM): 0.415 | relative viability ([13]; first compound 0.01 µM): 0.39 | relative viability ([13]; first compound 0.03162 µM): 0.383 | relative viability ([13]; first compound 0.1 µM): 0.322 | relative viability ([14]; first compound 0.001 µM): 0.521 | relative viability ([14]; first compound 0.003162 µM): 0.647 | relative viability ([14]; first compound 0.01 µM): 0.647 | relative viability ([14]; first compound 0.03162 µM): 0.551 | relative viability ([14]; first compound 0.1 µM): 0.554 | relative viability ([15]; first compound 0.001 µM): 0.267 | relative viability ([15]; first compound 0.003162 µM): 0.23 | relative viability ([15]; first compound 0.01 µM): 0.234 | relative viability ([15]; first compound 0.03162 µM): 0.268 | relative viability ([15]; first compound 0.1 µM): 0.271 | relative viability ([16]; first compound 0.001 µM): 0.249 | relative viability ([16]; first compound 0.003162 µM): 0.303 | relative viability ([16]; first compound 0.03162 µM): 0.157 | relative viability ([16]; first compound 0.1 µM): 0.158 | relative viability ([17]; first compound 0.001 µM): 0.538 | relative viability ([17]; first compound 0.003162 µM): 0.524 | relative viability ([17]; first compound 0.01 µM): 0.476 | relative viability ([17]; first compound 0.03162 µM): 0.613 | relative viability ([17]; first compound 0.1 µM): 0.465 | relative viability ([18]; first compound 0.001 µM): 0.437 | relative viability ([18]; first compound 0.003162 µM): 0.569 | relative viability ([18]; first compound 0.01 µM): 0.468 | relative viability ([18]; first compound 0.03162 µM): 0.299 | relative viability ([18]; first compound 0.1 µM): 0.37 | relative viability ([19]; first compound 0.001 µM): 0.952 | relative viability ([19]; first compound 0.003162 µM): 0.915 | relative viability ([19]; first compound 0.01 µM): 1.03 | relative viability ([19]; first compound 0.03162 µM): 0.974 | relative viability ([19]; first compound 0.1 µM): 0.9 | relative viability ([20]; first compound 0.001 µM): 0.462 | relative viability ([20]; first compound 0.003162 µM): 0.617 | relative viability ([20]; first compound 0.01 µM): 0.567 | relative viability ([20]; first compound 0.03162 µM): 0.339 | relative viability ([20]; first compound 0.1 µM): 0.494 | relative viability ([21]; first compound 0.001 µM): 0.436 | relative viability ([21]; first compound 0.003162 µM): 0.475 | relative viability ([21]; first compound 0.01 µM): 0.371 | relative viability ([21]; first compound 0.03162 µM): 0.361 | relative viability ([21]; first compound 0.1 µM): 0.385 | relative viability ([22]; first compound 0.001 µM): 0.487 | relative viability ([22]; first compound 0.003162 µM): 0.72 | relative viability ([22]; first compound 0.01 µM): 0.456 | relative viability ([22]; first compound 0.1 µM): 0.314
